Common to all, as to assay type: physicochemical
The nature of series [1]: Evaluation of absorption wavelength property in CHCl3 solution. Also on record: ε: unit not given here. The note with it: for ε: molar absorption coefficient. From the text:
The absorption wavelength properties of Compounds Nos. 1 to 7, 16, 26, 43, 52 to 62, 65, 66, 69, 70 and 94 to 102 and Comparative Compounds Nos. 1 and 2 obtained above were each evaluated in a CHCl3 solution. The results are shown in [Table 5].

A short description of series [2]: Heat resistance of exposed coating film of coloring alkali-developable photosensitive composition. The following applies: for Relative intensity After exposure: coating film after exposure (150 mJ/cm^2), before heating; for λmax: coating film of composition containing the compound, on glass; for Relative intensity 230° C., 30 min: exposed coating film after 230° C. From the text: 30.33 g of ACA Z250 (manufactured by Daicel Cytec Company Ltd.) and 11.04 g of ARONIX M-450 (manufactured by Toagosei Co., Ltd.) as the component (B), 1.93 g of IRGACURE 907 (manufactured by BASF) as the component (C), 36.60 g of PGMEA and 20.08 g of cyclohexanone as the component (E), as well as 0.01 g of FZ2122 (manufactured by Dow Corning Toray Co., Ltd.) as other component were mixed and stirred until insoluble components were diminished to give Alkali-developable photosensitive composition No. 1.
1.90 g of dimethylacetamide was added to 0.10 g of Compound No. 1 obtained above as the component (A) and dissolved under stirring.
5.0 g of Alkali-developable photosensitive composition No. 1 obtained in Step 1 and 1.0 g of Dye liquid No. 1 obtained in Step 2 were mixed and stirred to homogeneous to give Coloring alkali-developable photosensitive composition No. 1 of the present invention.
Coloring alkali-developable photosensitive compositions Nos. 2 to 20 were obtained in a similar manner to that in Example 2-1, except that Compound No. 1 as the component (A) in Step 2 of Example 2-1 was changed to Compound No. 2, 3, 5, 6, 16, 53, 56, 57, 59, 60, 65, 66, 94 or 96 to 101 obtained above.
Comparative coloring alkali-developable photosensitive compositions Nos. 1 and 2 were obtained in a similar manner to that in Example 2-1, except that Compound No. 1 as the component (A) in Step 2 of Example 2-1 was changed to Comparative Compound No. 1 or 2.
The coloring alkali-developable photosensitive compositions obtained in Example 2 were each applied to a glass basal plate under a condition of 410 rpm×7 sec and dried (90° C., 90 sec) on a hot plate. The obtained coating film was exposed (150 mJ/cm^2) by using an ultrahigh pressure mercury lamp. The heat resistance of the exposed coating film was investigated under conditions of 180° C.×60 min and 230° C.×30 min. The results are shown in [Table 7].
Using the coloring alkali-developable photosensitive compositions obtained in Examples 2-2 to 2-20 and Comparative Examples 2-1 and 2-2, heat resistance was investigated in a similar manner to that in Evaluation Example 3. The results are shown in [Table 7].

Series [3] in a line: Evaluation of heat resistance by TG-DTA. The following applies: temperature at 10% weight loss. On the procedure:
Compounds Nos. 1 to 7, 16, 26, 43, 52 to 62, 65, 66, 69, 70 and 94 to 102 and Comparative Compounds Nos. 1 and 2 obtained above were analyzed by TG-DTA, and the melting points and temperatures at 10% weight loss were measured. The results are shown in [Table 6].

Another series can be described thus: Solubility in PGMEA. The following applies: concentration when PGMEA was added dropwise to 0.1 g of the compound under stirring and was dissolved completely. How it is done:
That the obtained solid was an intended product was confirmed by ^1H-NMR and IR. Furthermore, the solubility of the obtained compound was measured. The solubility was a concentration when PGMEA was added dropwise to 0.1 g of the compound under stirring and was dissolved completely. The results thereof are shown in [Table 1] to [Table 4].
That the obtained solid was an intended product was confirmed by ^1H-NMR and IR. Furthermore, the solubility of the obtained compound was measured. The solubility was a concentration when PGMEA was added to 0.1 g of the compound while stirring and was dissolved completely. The results thereof are shown in [Table 1] to [Table 4]

For `CCN(CC)c1ccc(/C=C(\C#N)C(=O)OCC(C)(COC(=O)/C(C#N)=C/c2ccc(N(C)CCO)cc2)COC(=O)/C(C#N)=C/c2ccc(N(CC)CC)cc2)cc1` (stereo not shown) [Compound No. 100], in series [1], the λmax is reported as 434 nm and the ε is recorded as 147000. Further, in series [2], the “Relative intensity After exposure” value stood at 100; the λmax turned out to be 436 nm; the “Relative intensity 230° C., 30 min” value was found to be 99.7. In series [3], this compound gave a 10% weight loss of 330 °C. In the series “Solubility in PGMEA”, the “Solubility (PGMEA)” value stood at 6.0 wt %.

In series [1], `CCCCN(CCCC)c1ccc(/C=C(\C#N)C(=O)Oc2ccc(C(c3ccc(OC(=O)/C(C#N)=C/c4ccc(N(CCCC)CCCC)cc4)cc3)(C(F)(F)F)C(F)(F)F)cc2)cc1` [Compound No. 69] had a λmax of 448 nm and a ε of 107000. In addition, the 10% weight loss in series [3] was determined as 336 °C. Besides, the “Solubility (PGMEA)” value in the series “Solubility in PGMEA” is given as 1.0 or less wt %.

In series [1], `CCN(CC)c1ccc(/C=C(\C#N)C(=O)OCC(C)(COC(=O)/C(C#N)=C/c2ccc(N(C)CCO)cc2)COC(=O)/C(C#N)=C/c2ccc(N(C)CCO)cc2)cc1` [Compound No. 99] came in with a λmax of 431 nm and a ε of 130000. Moreover, in series [2], the “Relative intensity After exposure” value stood at 100; the λmax amounted to 433 nm; the “Relative intensity 230° C., 30 min” value came to 99.6. For the same compound, the 10% weight loss in series [3] was 320 °C. Moreover, the “Solubility (PGMEA)” value in the series “Solubility in PGMEA” is 1.0 or less wt %.

In series [1], `CN(C)c1ccc(/C=C(\C#N)C(=O)OCCCCCCCCCCOC(=O)/C(C#N)=C/c2ccc(N(C)C)cc2)cc1` [Compound No. 61] showed a λmax of 423 nm and a ε of 90800. The 10% weight loss in series [3] is 350 °C. The “Solubility (PGMEA)” value in the series “Solubility in PGMEA” is listed as 1.0 or less wt %.

Turning to `CCN(CC)c1ccc(/C=C(\C#N)C(=O)OCC(C)(COC(=O)/C(C#N)=C/c2ccc(N(CC)CC)cc2)COC(=O)/C(C#N)=C/c2ccc(N(CC)CC)cc2)cc1` [Compound No. 56], in series [1], the λmax is reported as 436 nm and the ε came to 160000. Besides, in series [2], the “Relative intensity After exposure” value came to 100; the λmax was determined as 430 nm; the “Relative intensity 230° C., 30 min” value was 99.9. This compound gave a 10% weight loss in series [3] of 334 °C. Also, the “Solubility (PGMEA)” value in the series “Solubility in PGMEA” turned out to be 5.6 wt %.

For the compound `CCOC(=O)/C(C#N)=C/c1ccc(N(CC)CC)cc1` [Comparative Compound No. 1, reference compound], in series [1], the λmax is 430 nm and the ε was 54900. The 10% weight loss in series [3] was found to be 259 °C.

In series [1], `CCN(CCC#N)c1ccc(/C=C(\C#N)C(=O)OCCCCCCOC(=O)/C(C#N)=C/c2ccc(N(CC)CCC#N)cc2)cc1` [Compound No. 58] registered a λmax of 420 nm and a ε of 80500. For the same compound, the 10% weight loss in series [3] worked out at 351 °C. Besides, the “Solubility (PGMEA)” value in “Solubility in PGMEA” was 1.0 or less wt %.

In series [1], `CCOCCOC(=O)C(C#N)=C(C)c1ccc(N(CC)CC)cc1` [Comparative Compound No. 2, reference compound] returned a λmax of 432 nm and a ε of 57200. This compound also came in with a 10% weight loss in series [3] of 252 °C.

For the compound `CC(COC(=O)/C(C#N)=C/c1ccc(N2CCOCC2)cc1)OC(=O)/C(C#N)=C/c1ccc(N2CCOCC2)cc1` (stereo not shown) [Compound No. 43], in series [1], the λmax is reported as 408 nm and the ε stood at 62800. In series [3], this compound yielded a 10% weight loss of 318 °C. Further, the “Solubility (PGMEA)” value in “Solubility in PGMEA” is listed as 1.0 or less wt %.

Regarding `CCOCCOC(=O)/C(C#N)=C/c1ccc(N(CC)CC)cc1` [Comparative Compound No. 2, reference compound], in series [2], the “Relative intensity After exposure” value came out at 100; the λmax stood at 433 nm; the “Relative intensity 230° C., 30 min” value was 24.0.

In series [1], `CC(=O)OCCN(CCOC(C)=O)c1ccc(/C=C(\C#N)C(=O)OCCCCCCCOC(=O)/C(C#N)=C/c2ccc(N(CCOC(C)=O)CCOC(C)=O)cc2)cc1` [Compound No. 62] yielded a λmax of 409 nm and a ε of 89900. In addition, the 10% weight loss in series [3] came out at 366 °C. Besides, the “Solubility (PGMEA)” value in the series “Solubility in PGMEA” is given as 1.0 or less wt %.

Turning to `CCCCN(CCCC)c1ccc(/C=C(\C#N)C(=O)Oc2ccc(S(=O)(=O)c3ccc(OC(=O)/C(C#N)=C/c4ccc(N(CCCC)CCCC)cc4)cc3)cc2)cc1` [Compound No. 70], in series [1], the λmax stood at 453 nm and the ε was 135000. This compound came in with a 10% weight loss in series [3] of 324 °C. Besides, in “Solubility in PGMEA”, the “Solubility (PGMEA)” value was 1.0 or less wt %.

In series [1], `CCN(CC)c1ccc(/C=C(\C#N)C(=O)Oc2ccc(-c3nc(-c4ccc(OC(=O)/C(C#N)=C/c5ccc(N(CC)CC)cc5)cc4)nc(-c4ccc(OC(=O)/C(C#N)=C/c5ccc(N(CC)CC)cc5)cc4)n3)cc2)cc1` [Compound No. 26] returned a λmax of 447 nm and a ε of 210000. In series [3], this compound yielded a 10% weight loss of 321 °C. For the same compound, in “Solubility in PGMEA”, the “Solubility (PGMEA)” value is reported as 1.0 or less wt %.

On to `CCN(CC)c1ccc(/C=C(\C#N)C(=O)OCCCCCOC(=O)/C(C#N)=C/c2ccc(N(CC)CC)cc2)cc1` [Compound No. 4], for which, in series [1], the λmax is 431 nm and the ε is given as 110000. This compound came in with a 10% weight loss in series [3] of 335 °C. The “Solubility (PGMEA)” value in “Solubility in PGMEA” was 0.6 wt %.

In series [1], `CC(COC(=O)/C(C#N)=C/c1ccc(N(C)C)cc1)OC(=O)/C(C#N)=C/c1ccc(N(C)C)cc1` (stereo not shown) [Compound No. 55] registered a λmax of 427 nm and a ε of 84600. In series [3], the 10% weight loss worked out at 323 °C. Moreover, the “Solubility (PGMEA)” value in “Solubility in PGMEA” is 1.0 or less wt %.

With `CCN(CC)c1ccc(/C=C(\C#N)C(=O)Oc2ccc(C3(c4ccc(OC(=O)/C(C#N)=C/c5ccc(N(CC)CC)cc5)cc4)CCCCC3)cc2)cc1` [Compound No. 52], in series [1], the λmax is reported as 441 nm and the ε is 121000. In series [3], this compound registered a 10% weight loss of 322 °C. In addition, the “Solubility (PGMEA)” value in “Solubility in PGMEA” stood at 0.6 wt %.

In series [1], `CCN(CC)c1ccc(/C=C(\C#N)C(=O)NCC(C)NC(=O)/C(C#N)=C/c2ccc(N(CC)CC)cc2)cc1` (stereo not shown) [Compound No. 54] had a λmax of 428 nm and a ε of 90500. Further, in series [3], the 10% weight loss amounted to 354 °C. Further, the “Solubility (PGMEA)” value in “Solubility in PGMEA” was 1.0 or less wt %.

With `CCCCN(CCCC)c1ccc(/C=C(\C#N)C(=O)OCC(C)(COC(=O)/C(C#N)=C/c2ccc(N(CCCC)CCCC)cc2)COC(=O)/C(C#N)=C/c2ccc(N(CCCC)CCCC)cc2)cc1` [Compound No. 102], in series [1], the λmax amounted to 440 nm and the ε was 125000. For the same compound, the 10% weight loss in series [3] came to 354 °C. In addition, the “Solubility (PGMEA)” value in the series “Solubility in PGMEA” stood at 7.5 wt %.

In series [1], `CCN(CC)c1ccc(/C=C(\C#N)C(=O)NCCCCCCNC(=O)/C(C#N)=C/c2ccc(N(CC)CC)cc2)cc1` [Compound No. 7] returned a λmax of 432 nm and a ε of 99600. In series [3], this compound returned a 10% weight loss of 352 °C. The “Solubility (PGMEA)” value in the series “Solubility in PGMEA” came out at 0.2 wt %.
